Data: ChEMBL document CHEMBL1177832, “One unique steroidal sapogenin obtained through the microbial transformation of ruscogenin by Phytophthora cactorum ATCC 32134 and its potential inhibitory effect on tissue factor (TF) procoagulant activity” (Bioorg Med Chem Lett, 2010)

What follows are compounds tested on THP-1 (assay: Anticoagulant activity in human THP1 cells assessed as inhibition of TNF-alpha-stimulated tissue factor expression incubated 1 hr before TNFalpha challenge measured after 5 hrs).
Format: functional, cell-based

| Compound | IC50 [nM] |
| --- | --- |
| C[C@@H]1CC[C@@]2(OC1)O[C@H]1C[C@H]3[C@@H]4CCC5=CC(=O)C[C@@H](O)[C@]5(C)[C@H]4CC[C@]3(C)[C@H]1[C@@H]2C | 290 |
| C[C@H]1CC[C@@]2(OC1)O[C@H]1C[C@H]3[C@@H]4CC[C@@H]5C[C@@H](O)CC[C@]5(C)[C@H]4CC[C@]3(C)[C@H]1[C@@H]2C [SARSASAPOGENIN] | 3300 |
| C[C@@H]1CC[C@@]2(OC1)O[C@H]1C[C@H]3[C@@H]4CC=C5C[C@@H](O)C[C@@H](O)[C@]5(C)[C@H]4CC[C@]3(C)[C@H]1[C@@H]2C [RUSCOGENIN] | 2270 |

Results, then the compound that gave them:

| IC50 [nM] | Compound |
| --- | --- |
| 1210 | COc1cc(/C=C/C(=O)CC(=O)/C=C/c2ccc(O)c(OC)c2)ccc1O [CURCUMIN] |
| 6960 | C[C@@H]1CC[C@@]2(OC1)O[C@H]1C[C@H]3[C@@H]4CC=C5C[C@@H](O)CC[C@]5(C)[C@H]4CC[C@]3(C)[C@H]1[C@@H]2C [DISOGENIN] |
